Data published in ChEMBL document CHEMBL3885881, “DrugMatrix”.

Organism: Rattus norvegicus
Assay: DrugMatrix - Regimen: Daily Repeat
Assay type: toxicity, organism-based, Sprague-Dawley
Parameters: regimen Daily Repeat, gender Male, age 6-8 weeks
Details: in vivo, po, route oral GAVAGE, vehicle .5 % CMC; for ABSOLUTE BASOPHIL / ABSOLUTE EOSINOPHIL / ABSOLUTE LYMPHOCYTE / ABSOLUTE MONOCYTE / ABSOLUTE SEGMENTED NEUTROPHIL / BASOPHIL / EOSINOPHIL / ERYTHROCYTE COUNT / HEMATOCRIT / HEMOGLOBIN / LEUKOCYTE COUNT / LYMPHOCYTE / MEAN CORPUSCULAR HEMOGLOBIN / MEAN CORPUSCULAR HEMOGLOBIN CONCENTRATION / MEAN CORPUSCULAR VOLUME / MONOCYTE / NEUTROPHIL / NUCLEATED RED BLOOD CELLS / PLATELET COUNT: tissue Blood; for ALANINE AMINOTRANSFERASE / ALBUMIN / ASPARTATE AMINOTRANSFERASE / BLOOD UREA NITROGEN / CARBON DIOXIDE / CHLORIDE / CREATINE PHOSPHOKINASE / CREATININE / GLUCOSE / LACTATE DEHYDROGENASE / LIPASE / PHOSPHORUS / POTASSIUM / SODIUM / TOTAL BILIRUBIN / TOTAL PROTEIN: tissue Plasma
[1] = 16 mg/kg, 72 h, dose level Low, time 3 day
[2] = 16 mg/kg, 120 h, dose level Low, time 5 day
[3] = 2500 mg/kg, 72 h, dose level High, time 3 day
[4] = 2500 mg/kg, 120 h, dose level High, time 5 day

In the case of CC1=C(C(=O)O)N2C(=O)[C@@H](NC(=O)[C@H](N)c3ccccc3)[C@H]2SC1 [CEPHALEXIN ANHYDROUS], the “ABSOLUTE BASOPHIL” value [1] is reported as 0 CELLS/uL, the “ABSOLUTE EOSINOPHIL” value [1] is reported as 0 CELLS/uL and the “ABSOLUTE LYMPHOCYTE” value [1] is reported as 17436 CELLS/uL. The “ABSOLUTE MONOCYTE” value [1] was 124 CELLS/uL, the “ABSOLUTE SEGMENTED NEUTROPHIL” value [1] was 706.67 CELLS/uL and the BASOPHIL [1] was 0%. For the same compound, the EOSINOPHIL [1] was 0%, the “ERYTHROCYTE COUNT” value [1] was 5.81 x10E6/uL and the HEMATOCRIT [1] was 35.97%. For the same compound, the HEMOGLOBIN [1] was 13.93 G/DL, the “LEUKOCYTE COUNT” value [1] was 18.27 x10E3/uL and the LYMPHOCYTE [1] was 95.33%. For the same compound, the “MEAN CORPUSCULAR HEMOGLOBIN” value [1] was 24.03 pg, the “MEAN CORPUSCULAR HEMOGLOBIN CONCENTRATION” value [1] was 38.8 G/DL and the “MEAN CORPUSCULAR VOLUME” value [1] was 61.97 fL. The MONOCYTE [1] was 0.67%, the NEUTROPHIL [1] was 4% and the “NUCLEATED RED BLOOD CELLS” value [1] was 0 /100WBC. For the same compound, the “PLATELET COUNT” value [1] was 1279 x10E3/uL, the “ALANINE AMINOTRANSFERASE” value [1] was 50.33 u/L and the ALBUMIN [1] was 4.13 G/DL. The “ASPARTATE AMINOTRANSFERASE” value [1] was 86.67 u/L, the “BLOOD UREA NITROGEN” value [1] was 14.33 mg/dL and the “CARBON DIOXIDE” value [1] was 30 mmol/L. For the same compound, the CHLORIDE [1] was 101 MEQ/L, the “CREATINE PHOSPHOKINASE” value [1] was 208 u/L and the CREATININE [1] was 0.23 mg/dL. For the same compound, the GLUCOSE [1] was 163.33 mg/dL, the “LACTATE DEHYDROGENASE” value [1] was 208.33 u/L and the LIPASE [1] was 9 u/L. The PHOSPHORUS [1] was 13.27 mg/dL, the POTASSIUM [1] was 7.33 MEQ/L and the SODIUM [1] was 146.17 MEQ/L. For the same compound, the “TOTAL BILIRUBIN” value [1] was 0.17 mg/dL, the “TOTAL PROTEIN” value [1] was 5.9 G/DL and the “ABSOLUTE BASOPHIL” value [2] was 0 CELLS/uL. For the same compound, the “ABSOLUTE EOSINOPHIL” value [2] was 0 CELLS/uL, the “ABSOLUTE LYMPHOCYTE” value [2] was 13406.33 CELLS/uL and the “ABSOLUTE MONOCYTE” value [2] was 44 CELLS/uL. The “ABSOLUTE SEGMENTED NEUTROPHIL” value [2] was 716.33 CELLS/uL, the BASOPHIL [2] was 0% and the EOSINOPHIL [2] was 0%. The “ERYTHROCYTE COUNT” value [2] was 5.62 x10E6/uL, the HEMATOCRIT [2] was 33.87% and the HEMOGLOBIN [2] was 13.33 G/DL. The “LEUKOCYTE COUNT” value [2] was 14.17 x10E3/uL, the LYMPHOCYTE [2] was 94.67% and the “MEAN CORPUSCULAR HEMOGLOBIN” value [2] was 23.63 pg. For the same compound, the “MEAN CORPUSCULAR HEMOGLOBIN CONCENTRATION” value [2] was 39.33 G/DL, the “MEAN CORPUSCULAR VOLUME” value [2] was 60.17 fL and the MONOCYTE [2] was 0.33%. For the same compound, the NEUTROPHIL [2] was 5%, the “NUCLEATED RED BLOOD CELLS” value [2] was 0 /100WBC and the “PLATELET COUNT” value [2] was 900 x10E3/uL. The “ALANINE AMINOTRANSFERASE” value [2] was 49 u/L, the ALBUMIN [2] was 4.2 G/DL and the “ASPARTATE AMINOTRANSFERASE” value [2] was 98 u/L. For the same compound, the “BLOOD UREA NITROGEN” value [2] was 14.67 mg/dL, the “CARBON DIOXIDE” value [2] was 24 mmol/L and the CHLORIDE [2] was 103.33 MEQ/L. For the same compound, the “CREATINE PHOSPHOKINASE” value [2] was 652.67 u/L, the CREATININE [2] was 0.25 mg/dL and the GLUCOSE [2] was 200.67 mg/dL. For the same compound, the “LACTATE DEHYDROGENASE” value [2] was 425.67 u/L, the LIPASE [2] was 9 u/L and the PHOSPHORUS [2] was 13.2 mg/dL. The POTASSIUM [2] was 6.1 MEQ/L, the SODIUM [2] was 146.5 MEQ/L and the “TOTAL BILIRUBIN” value [2] was 0.17 mg/dL. For the same compound, the “TOTAL PROTEIN” value [2] was 6.13 G/DL, the “ABSOLUTE BASOPHIL” value [3] was 0 CELLS/uL and the “ABSOLUTE EOSINOPHIL” value [3] was 47.67 CELLS/uL. The “ABSOLUTE LYMPHOCYTE” value [3] was 14295 CELLS/uL, the “ABSOLUTE MONOCYTE” value [3] was 55 CELLS/uL and the “ABSOLUTE SEGMENTED NEUTROPHIL” value [3] was 435.67 CELLS/uL. The BASOPHIL [3] was 0%, the EOSINOPHIL [3] was 0.33% and the “ERYTHROCYTE COUNT” value [3] was 5.55 x10E6/uL. The HEMATOCRIT [3] was 35.7%, the HEMOGLOBIN [3] was 14 G/DL and the “LEUKOCYTE COUNT” value [3] was 14.83 x10E3/uL. The LYMPHOCYTE [3] was 96.33%, the “MEAN CORPUSCULAR HEMOGLOBIN” value [3] was 25.23 pg and the “MEAN CORPUSCULAR HEMOGLOBIN CONCENTRATION” value [3] was 39.2 G/DL. For the same compound, the “MEAN CORPUSCULAR VOLUME” value [3] was 64.3 fL, the MONOCYTE [3] was 0.33% and the NEUTROPHIL [3] was 3%. The “NUCLEATED RED BLOOD CELLS” value [3] was 0 /100WBC, the “PLATELET COUNT” value [3] was 1231 x10E3/uL and the “ALANINE AMINOTRANSFERASE” value [3] was 67.33 u/L. The ALBUMIN [3] was 3.93 G/DL, the “ASPARTATE AMINOTRANSFERASE” value [3] was 82.67 u/L and the “BLOOD UREA NITROGEN” value [3] was 16 mg/dL. The “CARBON DIOXIDE” value [3] was 31.67 mmol/L, the CHLORIDE [3] was 100.33 MEQ/L and the “CREATINE PHOSPHOKINASE” value [3] was 209 u/L. The CREATININE [3] was 0.17 mg/dL, the GLUCOSE [3] was 140 mg/dL and the “LACTATE DEHYDROGENASE” value [3] was 154.67 u/L. The LIPASE [3] was 9 u/L, the PHOSPHORUS [3] was 10.93 mg/dL and the POTASSIUM [3] was 6.36 MEQ/L. For the same compound, the SODIUM [3] was 145.43 MEQ/L, the “TOTAL BILIRUBIN” value [3] was 0.2 mg/dL and the “TOTAL PROTEIN” value [3] was 5.67 G/DL. For the same compound, the “ABSOLUTE BASOPHIL” value [4] was 0 CELLS/uL, the “ABSOLUTE EOSINOPHIL” value [4] was 48.67 CELLS/uL and the “ABSOLUTE LYMPHOCYTE” value [4] was 11635.33 CELLS/uL. The “ABSOLUTE MONOCYTE” value [4] was 0 CELLS/uL, the “ABSOLUTE SEGMENTED NEUTROPHIL” value [4] was 2649.33 CELLS/uL and the BASOPHIL [4] was 0%. For the same compound, the EOSINOPHIL [4] was 0.33%, the “ERYTHROCYTE COUNT” value [4] was 5.85 x10E6/uL and the HEMATOCRIT [4] was 35.6%. For the same compound, the HEMOGLOBIN [4] was 13.87 G/DL, the “LEUKOCYTE COUNT” value [4] was 14.33 x10E3/uL and the LYMPHOCYTE [4] was 81.67%. For the same compound, the “MEAN CORPUSCULAR HEMOGLOBIN” value [4] was 23.8 pg, the “MEAN CORPUSCULAR HEMOGLOBIN CONCENTRATION” value [4] was 38.93 G/DL and the “MEAN CORPUSCULAR VOLUME” value [4] was 61.07 fL. For the same compound, the MONOCYTE [4] was 0%, the NEUTROPHIL [4] was 18% and the “NUCLEATED RED BLOOD CELLS” value [4] was 0 /100WBC. The “PLATELET COUNT” value [4] was 1275.33 x10E3/uL, the “ALANINE AMINOTRANSFERASE” value [4] was 101.33 u/L and the ALBUMIN [4] was 4.23 G/DL. The “ASPARTATE AMINOTRANSFERASE” value [4] was 94.67 u/L, the “BLOOD UREA NITROGEN” value [4] was 18.33 mg/dL and the “CARBON DIOXIDE” value [4] was 28 mmol/L. The CHLORIDE [4] was 105.33 MEQ/L, the “CREATINE PHOSPHOKINASE” value [4] was 302 u/L and the CREATININE [4] was 0.24 mg/dL. For the same compound, the GLUCOSE [4] was 174.67 mg/dL, the “LACTATE DEHYDROGENASE” value [4] was 98.67 u/L and the LIPASE [4] was 9.67 u/L. It also gave a PHOSPHORUS [4] of 11.77 mg/dL, a POTASSIUM [4] of 5.92 MEQ/L and an SODIUM [4] of 150.03 MEQ/L. The “TOTAL BILIRUBIN” value [4] was 0.17 mg/dL and the “TOTAL PROTEIN” value [4] was 5.97 G/DL.
